The source of these data is US11001590B2, “Pyrazolopyrimidine derivatives” (BAYER ANIMAL HEALTH GMBH, priority 2016, dated 2021).

For one data set, the target named is C. elegans Slo-1a (Caenorhabditis elegans, UniProt Q95V25). Put plainly: In vitro assay 1: C. elegans Slo-1a, action at a recombinant C. elegans CHO cell line (membrane potential measurement).
Data set [1] relates to Nippostrongylus brasiliensis. Put plainly: In vitro assay 2: Nippostrongylus brasiliensis (NIPOBR), acetylcholine esterase readout. To be noted: adult worms, read-out: activity (reduction of AChE compared to negative control); for inhibition at 10 µg/mL: 10 μg/ml (10 ppm); for inhibition at 1 µg/mL: 1 μg/ml (1 ppm). As for the experimental part: In Vitro Assay 2: Nippostronqylus Brasiliensis (NIPOBR)
Adult Nippostrongylus brasiliensis were washed with saline buffer containing 100 U/ml penicillin, 0.1 mg/ml streptomycin and 2.5 μg/ml amphotericin B. Test compounds were dissolved in DMSO and worms were incubated in medium in a final concentration of 10 μg/ml (10 ppm) respectively 1 μg/ml (1 ppm). An aliquot of the medium was used to determine the acetylcholine esterase activity in comparison to a negative control. The principle of measuring acetylcholine esterase as readout for anthelmintic activity was described in Rapson et al (1986) and Rapson et al (1987).

Data set [2] relates to Dirofilaria immitis microfilariae. The experiment in a line: In vitro assay 3: Dirofilaria immitis microfilariae (DIROIM L1), motility. To be noted: 72 h, reduction of motility vs negative control, 72 h incubation.
Data set [3] in a line: log P by HPLC on reversed phase columns (Method L0; [a] acidic, [b] neutral range).
Protocol: Calibration was done with straight-chain alkan-2-ones (with 3 to 16 carbon atoms) with known log P values (measurement of log P values using retention times with linear interpolation between successive alkanones). Lambda-max-values were determined using UV-spectra from 200 nm to 400 nm and the peak values of the chromatographic signals.
Data set [4] concerns Dirofilaria immitis third-stage larvae. The experiment in a line: In vitro assay 4: Dirofilaria immitis (DIROIM L4), motility of larvae. As to conditions: 72 h.
For data set [5], the system named is Litomosoides sigmodontis third-stage larvae. Put plainly: In vitro assay 7: Litomosoides sigmodontis L3 (LTMOSI), motility. As to conditions: 72 h, reduction of motility vs negative control, 72 h incubation.

Molecules are shown by their SMILES.

Sequence of C. elegans Slo-1a (Q95V25 whole entry): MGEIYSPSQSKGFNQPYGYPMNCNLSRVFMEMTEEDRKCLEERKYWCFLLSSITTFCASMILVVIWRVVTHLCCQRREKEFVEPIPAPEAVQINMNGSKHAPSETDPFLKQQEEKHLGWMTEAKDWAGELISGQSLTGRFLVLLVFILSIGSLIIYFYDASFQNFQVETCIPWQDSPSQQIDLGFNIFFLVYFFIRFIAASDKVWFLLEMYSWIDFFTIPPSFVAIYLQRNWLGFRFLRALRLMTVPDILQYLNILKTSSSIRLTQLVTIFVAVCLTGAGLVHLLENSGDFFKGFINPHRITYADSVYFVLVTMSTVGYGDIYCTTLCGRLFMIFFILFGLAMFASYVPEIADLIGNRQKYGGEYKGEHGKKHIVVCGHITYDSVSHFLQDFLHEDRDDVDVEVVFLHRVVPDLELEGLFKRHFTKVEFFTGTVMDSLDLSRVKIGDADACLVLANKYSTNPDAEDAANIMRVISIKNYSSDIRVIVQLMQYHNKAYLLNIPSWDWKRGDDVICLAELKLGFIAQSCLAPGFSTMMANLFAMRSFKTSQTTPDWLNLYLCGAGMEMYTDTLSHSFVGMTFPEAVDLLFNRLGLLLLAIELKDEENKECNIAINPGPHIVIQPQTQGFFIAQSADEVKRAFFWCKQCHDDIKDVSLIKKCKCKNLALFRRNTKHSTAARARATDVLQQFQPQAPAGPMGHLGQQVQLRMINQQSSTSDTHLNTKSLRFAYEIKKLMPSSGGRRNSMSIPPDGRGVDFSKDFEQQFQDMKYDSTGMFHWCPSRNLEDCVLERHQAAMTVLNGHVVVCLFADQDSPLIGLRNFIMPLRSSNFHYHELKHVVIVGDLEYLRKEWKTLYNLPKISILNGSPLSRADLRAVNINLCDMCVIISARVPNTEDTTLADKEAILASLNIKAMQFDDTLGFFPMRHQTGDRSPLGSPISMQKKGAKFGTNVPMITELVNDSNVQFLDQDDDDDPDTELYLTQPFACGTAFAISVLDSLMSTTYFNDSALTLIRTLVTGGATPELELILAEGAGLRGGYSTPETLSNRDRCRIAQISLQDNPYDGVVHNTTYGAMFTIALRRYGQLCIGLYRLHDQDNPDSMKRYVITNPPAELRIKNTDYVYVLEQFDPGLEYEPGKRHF

One may read the EC50 as the concentration at which the effect is half-maximal. One may read the chromatographic logP as a lipophilicity value derived from retention on a column. Low values mean a more hydrophilic compound, high ones a more lipophilic compound. Take `Cc1nn2c(C(C)C)c(C(=O)N[C@H]3CCc4ccccc43)cnc2c1-c1cnn(CC(F)F)c1` [Example 377]: the EC50 was 15.8 nM at C. elegans Slo-1a and less than 10 µg/mL in data set [2]. Besides, in data set [1], the inhibition at 10 µg/mL was greater than 80%. In data set [3], this compound gave a chromatographic logP of 3.49.
In the case of `Cc1nn2c(C(C)C)c(C(=O)N[C@H]3CCOc4ccccc43)cnc2c1-c1ccc(F)c(F)c1F` [Example 166], the EC50 on C. elegans Slo-1a was 1.58 nM; in data set [4] it was less than 0.1 µg/mL; in data set [5] it was less than 0.1 µg/mL; in data set [2], less than 0.1 µg/mL. Also, in data set [1], the inhibition at 10 µg/mL is greater than 80%. This compound yielded a chromatographic logP in data set [3] of 4.54.
With `Cc1nn2c(C(C)C)c(C(=O)N[C@H]3CCOc4ccccc43)cnc2c1-c1ccc(Br)cc1` [Example 206], the EC50 at C. elegans Slo-1a is 12.6 nM; in data set [2], less than 1 µg/mL. For the same compound, the inhibition at 10 µg/mL in data set [1] was greater than 80%. Moreover, in data set [3], the chromatographic logP was found to be 5.02.
For `Cc1nn2c(C(C)C)c(C(=O)N[C@H]3CCc4ccccc43)cnc2c1-c1ccc(F)c(C(F)(F)F)c1` [Example 294], in that order: 50.1 nM, less than 10 µg/mL, greater than 80% and 5.36.
For `COCc1cccc(-c2c(C)nn3c(C(C)C)c(C(=O)N[C@H]4CCOc5ccccc54)cnc23)c1` [Example 392], in that order: 10 nM, less than 0.1 µg/mL, greater than 80% and 4.16.
As to `Cc1nn2c(C(C)C)c(C(=O)N[C@H]3CCOc4ccccc43)cnc2c1-c1cccc(OC(C)C)c1F` [Example 188], the EC50 is 12.6 nM on C. elegans Slo-1a and less than 1 µg/mL in data set [2]. The inhibition at 10 µg/mL in data set [1] is greater than 80%. This compound showed a chromatographic logP in data set [3] of 4.79.
On to `Cc1nn2c(C(C)C)c(C(=O)N[C@H]3CCCc4ccccc43)cnc2c1-c1cc(Cl)c(F)c(Cl)c1` [Example 128], for which the EC50 was 12.6 nM on C. elegans Slo-1a, less than 0.1 µg/mL in data set [4], less than 0.1 µg/mL in data set [5] and less than 0.1 µg/mL in data set [2]. Besides, the inhibition at 10 µg/mL in data set [1] is greater than 80%. In data set [3], the chromatographic logP is 6.26.
Regarding `Cc1nn2c(C(C)C)c(C(=O)N[C@H]3CCOc4ccccc43)cnc2c1-c1ccc(F)c2c1OCO2` [Example 263], the EC50 is 1.58 nM on C. elegans Slo-1a, less than 0.1 µg/mL in data set [4] and less than 0.1 µg/mL in data set [2]. The inhibition at 1 µg/mL in data set [1] was greater than 80%. For the same compound, the inhibition at 10 µg/mL in data set [1] is greater than 80%. Moreover, the chromatographic logP in data set [3] came to 4.13.
`Cc1nn2c(C(C)C)c(C(=O)N[C@H]3CCOc4ccccc43)cnc2c1-c1cc(Cl)c(F)c(Cl)c1` [Example 194]: the EC50 on C. elegans Slo-1a was 12.6 nM; in data set [4], less than 0.1 µg/mL; in data set [5], less than 0.1 µg/mL; in data set [2], less than 0.1 µg/mL. For the same compound, the inhibition at 1 µg/mL in data set [1] was greater than 80%. Also, the inhibition at 10 µg/mL in data set [1] was greater than 80%. Moreover, the chromatographic logP in data set [3] amounted to 5.65.
Turning to `Cc1nn2c(C(C)C)c(C(=O)N[C@H]3CCOc4ccccc43)cnc2c1-c1ccc(F)c(Cl)c1F` [Example 213], the EC50 at C. elegans Slo-1a was 1.58 nM; in data set [4] it was less than 0.1 µg/mL; in data set [5] it was less than 0.1 µg/mL; in data set [2], less than 0.1 µg/mL. In data set [1], the inhibition at 10 µg/mL is greater than 80%. In addition, in data set [3], the chromatographic logP was 4.8.
`Cc1nn2c(C(C)C)c(C(=O)N[C@H]3CCOc4ccccc43)cnc2c1-c1cccc2c1OC(F)(F)O2` [Example 257]: the EC50 on C. elegans Slo-1a was 6.31 nM; in data set [2] it was less than 0.1 µg/mL. Further, the inhibition at 10 µg/mL in data set [1] was greater than 80%. In data set [3], this compound came in with a chromatographic logP of 4.87.
For `CC(C)c1c(C(=O)N[C@H]2CCOc3ccccc32)cnc2c(-c3cc(Cl)cc(Cl)c3)c(S(C)(=O)=O)nn12` [Example 219], in that order: 20 nM, less than 1 µg/mL, greater than 80% and 4.16.
For `Cc1nn2c(C(C)C)c(C(=O)N[C@H]3CCOc4ccccc43)cnc2c1-c1cnn(CC2CC2)c1` [Example 419], in that order: 7.94 nM, less than 10 µg/mL, greater than 80% and 3.59.
As for `COc1cc(-c2c(C)nn3c(C(C)C)c(C(=O)N[C@H]4CCOc5ccccc54)cnc23)cc(F)c1F` [Example 241], the EC50 on C. elegans Slo-1a was 6.31 nM; in data set [4] it was less than 0.1 µg/mL; in data set [5] it was less than 0.1 µg/mL; in data set [2], less than 1 µg/mL. The inhibition at 1 µg/mL in data set [1] is greater than 80%. Further, the inhibition at 10 µg/mL in data set [1] is greater than 80%. Further, the chromatographic logP in data set [3] worked out at 4.6.
For the compound `Cc1nn2c(C(C)C)c(C(=O)N[C@H]3CCOc4ccccc43)cnc2c1-c1c(F)cc(Cl)cc1F` [Example 246], the EC50 on C. elegans Slo-1a is 6.31 nM; in data set [4], less than 0.1 µg/mL; in data set [5], less than 0.1 µg/mL; in data set [2], less than 0.1 µg/mL. Also, the inhibition at 1 µg/mL in data set [1] is greater than 80%. In addition, the inhibition at 10 µg/mL in data set [1] is greater than 80%. Also, the chromatographic logP in data set [3] stood at 4.82.
For `Cc1nn2c(C(C)C)c(C(=O)N[C@H]3CCOc4ccccc43)cnc2c1-c1cccc(F)c1F` [Example 136], the EC50 is 6.31 nM at C. elegans Slo-1a, less than 0.1 µg/mL in data set [4], less than 0.1 µg/mL in data set [5] and less than 0.1 µg/mL in data set [2]. Besides, the inhibition at 1 µg/mL in data set [1] was greater than 80%. For the same compound, the inhibition at 10 µg/mL in data set [1] was greater than 80%. In addition, the chromatographic logP in data set [3] came to 4.34.
For `Cc1nn2c(C(C)C)c(C(=O)N[C@H]3CCOc4ccccc43)cnc2c1-c1cccc(N2CC(F)C2)c1` [Example 459], the values for the EC50 (at C. elegans Slo-1a; in data set [2]) were 10 nM and less than 1 µg/mL, respectively. For the same compound, the inhibition at 10 µg/mL in data set [1] was greater than 80%. Besides, the chromatographic logP in data set [3] is 4.36.
For the compound `Cc1nn2c(C3CC3)c(C(=O)N[C@H]3CCOc4ccccc43)cnc2c1-c1cnn(CC2CC2)c1` [Example 470], the EC50 was 7.94 nM at C. elegans Slo-1a and less than 10 µg/mL in data set [2]. Also, the inhibition at 10 µg/mL in data set [1] is greater than 80%. The chromatographic logP in data set [3] came to 2.92.
For `Cc1nn2c(C(C)C)c(C(=O)N[C@H]3CCOc4ccccc43)cnc2c1-c1cccc(N2CC(F)(F)C2)c1` [Example 440], in that order: 12.6 nM, less than 1 µg/mL, greater than 80% and 4.64.
For `Cc1nn2c(C(C)C)c(C(=O)N[C@H]3CCOc4ccccc43)cnc2c1-c1cccc(N(C)C)c1` [Example 393], in that order: 10 nM, less than 0.1 µg/mL, greater than 80% and 3.64.
For `COCc1cccc(-c2c(C)nn3c(C4CC4)c(C(=O)N[C@H]4CCOc5ccccc54)cnc23)c1` [Example 451], in that order: 7.94 nM, less than 1 µg/mL, greater than 80% and 3.43.
For `Cc1nn2c(N3CCOCC3)c(C(=O)N[C@H]3CCOc4ccccc43)cnc2c1-c1cc(Cl)cc(Cl)c1` [Example 516], the figures for the EC50 (at C. elegans Slo-1a; in data set [4]; in data set [2]) were 5.01 nM, less than 0.1 µg/mL and less than 0.1 µg/mL, respectively. The inhibition at 1 µg/mL in data set [1] was greater than 80%. Besides, in data set [1], the inhibition at 10 µg/mL is greater than 80%. This compound also gave a chromatographic logP in data set [3] of 3.99.
As for `Cc1nn2c(C(C)C)c(C(=O)N[C@H]3CCCc4ccccc43)cnc2c1-c1cc(Cl)cc(Cl)c1F` [Example 265], the EC50 on C. elegans Slo-1a is 2.51 nM; in data set [2], less than 1 µg/mL. In addition, in data set [1], the inhibition at 10 µg/mL is greater than 80%. Also, in data set [3], the chromatographic logP amounted to 6.01.
For `Cc1nn2c(C(C)C)c(C(=O)N[C@H]3CCc4ccccc43)cnc2c1-c1cnn(CC2CC2)c1` [Example 376], in that order: 7.94 nM, less than 10 µg/mL, greater than 80% and 3.83.
As to `Cc1nn2c(C(C)C)c(C(=O)N[C@H]3CCc4ccccc43)cnc2c1-c1ncc(Cl)cc1Cl` [Example 209], the EC50 on C. elegans Slo-1a is 1.26 nM; in data set [4], less than 0.1 µg/mL; in data set [2], less than 0.1 µg/mL. In addition, the inhibition at 1 µg/mL in data set [1] is greater than 80%. The inhibition at 10 µg/mL in data set [1] was greater than 80%. In data set [3], the chromatographic logP turned out to be 4.51.
For the compound `CCn1cc(-c2c(C)nn3c(C(C)C)c(C(=O)N[C@H]4CCc5ccccc54)cnc23)cn1` [Example 374], the 50% effective concentration (EC50) was 50.1 nM on C. elegans Slo-1a and less than 10 µg/mL in data set [2]. In addition, the inhibition at 10 µg/mL in data set [1] was greater than 80%. In data set [3], this compound displayed a chromatographic logP of 3.44.
As for `COc1ccc(-c2c(C)nn3c(C(C)C)c(C(=O)N[C@H]4CCOc5ccccc54)cnc23)cc1OC` [Example 242], the values for the half-maximal effective concentration (EC50) (on C. elegans Slo-1a; in data set [2]) were 79.4 nM and less than 10 µg/mL, respectively. In addition, in data set [1], the inhibition at 10 µg/mL was greater than 80%. The compound also yielded a chromatographic logP in data set [3] of 3.9.
As to `Cc1nn2c(C3CC3)c(C(=O)N[C@H]3CCc4ccccc43)cnc2c1-c1ccccc1F` [Example 357], the EC50 is 6.31 nM on C. elegans Slo-1a, less than 0.1 µg/mL in data set [4], less than 0.1 µg/mL in data set [5] and less than 0.1 µg/mL in data set [2]. The compound also registered a chromatographic logP in data set [3] of 3.67.
